Patent US12371428B2 (Exelixis, Inc., priority 2019, dated 2025)
Structures can show the parent of a compound that is named as a salt.

Target: Mer (phospho-Mer, MERTK-transfected 293A cells) (Homo sapiens (Human), UniProt Q12866)
Assay: Mer autophosphorylation ELISA in transient transfected 293A cells (Example H)
Assay type: cell-based
Details: cellular activity; Mer autophosphorylation ELISA in transient transfected 293A cells
Procedure, shortened: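 IC50 from 4-parameter logistic fit of phospho-Mer levels, quantified by ELISA against a phospho-Mer standard in lysates of MERTK-transfected 293A cells. Cells exposed 1 h to 8-point serial dilutions, serum-free, 0.3% DMSO; controls: DMSO (100%) and reference inhibitor (0%).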

Mer (phospho-Mer, MERTK-transfected 293A cells), sequence (Q12866 21-999): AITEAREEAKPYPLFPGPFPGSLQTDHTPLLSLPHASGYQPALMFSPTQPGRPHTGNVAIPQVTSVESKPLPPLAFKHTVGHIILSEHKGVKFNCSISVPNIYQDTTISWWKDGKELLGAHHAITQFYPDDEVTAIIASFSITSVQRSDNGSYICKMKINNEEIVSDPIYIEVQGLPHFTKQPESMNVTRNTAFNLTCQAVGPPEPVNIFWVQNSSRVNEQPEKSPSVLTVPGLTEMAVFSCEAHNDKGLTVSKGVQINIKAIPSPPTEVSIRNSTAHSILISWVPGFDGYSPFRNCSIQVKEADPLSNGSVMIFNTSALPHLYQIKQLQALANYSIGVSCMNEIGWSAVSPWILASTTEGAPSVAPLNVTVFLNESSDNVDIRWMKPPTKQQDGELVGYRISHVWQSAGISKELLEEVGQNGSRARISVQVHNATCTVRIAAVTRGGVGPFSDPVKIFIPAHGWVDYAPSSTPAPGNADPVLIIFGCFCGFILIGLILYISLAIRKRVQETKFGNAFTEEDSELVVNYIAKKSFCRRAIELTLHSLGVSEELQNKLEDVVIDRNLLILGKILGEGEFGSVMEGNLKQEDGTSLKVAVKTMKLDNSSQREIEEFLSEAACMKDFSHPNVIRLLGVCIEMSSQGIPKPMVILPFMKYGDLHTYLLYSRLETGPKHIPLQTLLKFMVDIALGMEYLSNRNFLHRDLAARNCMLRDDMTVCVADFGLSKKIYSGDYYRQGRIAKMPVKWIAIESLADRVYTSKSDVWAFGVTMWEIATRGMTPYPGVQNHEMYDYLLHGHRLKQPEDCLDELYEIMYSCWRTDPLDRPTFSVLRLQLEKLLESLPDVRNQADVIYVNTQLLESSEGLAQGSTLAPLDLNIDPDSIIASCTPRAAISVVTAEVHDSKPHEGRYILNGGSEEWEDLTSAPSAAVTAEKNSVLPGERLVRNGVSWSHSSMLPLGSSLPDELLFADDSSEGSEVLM

| IC50 [nM] | SMILES |
| --- | --- |
| < 100 | Cc1nc(C)c(-c2ccc(F)cc2)c(O)c1C(=O)Nc1ccc(Oc2ccnc3cc(C(C)C)cnc23)c(F)c1 [Compound 595, 5-(4-Fluorophenyl)-N-[3-fluoro-4-[(7-propan-2-yl-1,5-naphthyridin-4-yl)oxy]phenyl]-4-hydroxy-2,6-dimethylpyridine-3-carboxamide] |
| < 100 | COc1cc2c(Oc3ccc(NC(=O)c4cnc(C)c(-c5ccc(F)cc5)c4O)cc3)ccnc2cn1 [Compound 644, 5-(4-fluorophenyl)-4-hydroxy-N-[4-[(6-methoxy-1,7-naphthyridin-4-yl)oxy]phenyl]-6-methylpyridine-3-carboxamide] |
| < 100 | Cc1ncc(C(=O)Nc2ccc(Oc3ccnc4cc(C(C)C)cnc34)c(F)c2)c(O)c1-c1ccc(F)cc1 [Compound 596, 5-(4-Fluorophenyl)-N-[3-fluoro-4-[(7-propan-2-yl-1,5-naphthyridin-4-yl)oxy]phenyl]-4-hydroxy-6-methylpyridine-3-carboxamide] |
| < 100 | CNc1c(-c2ccc(F)cc2)c(=O)c(C(=O)Nc2ccc(Oc3ccnc4cc(OC)cnc34)c(F)c2)cn1C [Compound 585, N-[3-Fluoro-4-[(7-methoxy-1,5-naphthyridin-4-yl)oxy]phenyl]-5-(4-fluorophenyl)-1-methyl-6-(methylamino)-4-oxopyridine-3-carboxamide] |
| < 100 | CCc1nc2c(Oc3ccc(NC(=O)c4cnc(C)c(-c5ccc(F)cc5)c4O)cc3F)ccnc2cc1OC [Compound 589, N-[4-[(6-Ethyl-7-methoxy-1,5-naphthyridin-4-yl)oxy]-3-fluorophenyl]-5-(4-fluorophenyl)-4-hydroxy-6-methylpyridine-3-carboxamide] |
| < 100 | CNc1nc2c(Oc3ccc(NC(=O)c4cn(C(C)C)c(C)c(-c5ccc(F)cc5)c4=O)cc3F)ccnc2cc1OC [Compound 582, N-[3-Fluoro-4-[[7-methoxy-6-(methylamino)-1,5-naphthyridin-4-yl]oxy]phenyl]-5-(4-fluorophenyl)-6-methyl-4-oxo-1-propan-2-ylpyridine-3-carboxamide] |
| < 100 | COc1cc2c(Oc3ccc(NC(=O)c4cn(C5CC5)c(C)c(-c5ccc(F)cc5)c4=O)cc3F)ccnc2cn1 [Compound 640, 1-cyclopropyl-N-[3-fluoro-4-[(6-methoxy-1,7-naphthyridin-4-yl)oxy]phenyl]-5-(4-fluorophenyl)-6-methyl-4-oxopyridine-3-carboxamide] |
| < 100 | Cc1ncc(C(=O)Nc2ccc(Oc3ccnc4cnc(Cl)cc34)c(F)c2)c(O)c1-c1ccc(F)cc1 [Compound 641, N-[4-[(6-chloro-1,7-naphthyridin-4-yl)oxy]-3-fluorophenyl]-5-(4-fluorophenyl)-4-hydroxy-6-methylpyridine-3-carboxamide] |
| < 100 | Cc1ncc(C(=O)Nc2ccc(Oc3ccnc4cc(C(C)C)cnc34)cc2)c(O)c1-c1ccc(F)cc1 [Compound 594, 5-(4-Fluorophenyl)-4-hydroxy-6-methyl-N-[4-[(7-propan-2-yl-1,5-naphthyridin-4-yl)oxy]phenyl]pyridine-3-carboxamide] |
| < 100 | Cc1ncc(C(=O)Nc2ccc(Oc3ccnc4cc(-c5cnn(C(F)F)c5)cnc34)c(F)c2)c(O)c1-c1ccc(F)cc1 [Compound 610, N-[4-[[7-[1-(Difluoromethyl)pyrazol-4-yl]-1,5-naphthyridin-4-yl]oxy]-3-fluorophenyl]-5-(4-fluorophenyl)-4-hydroxy-6-methylpyridine-3-carboxamide hydrochloride] |
| < 100 | Cc1ncc(C(=O)Nc2ccc(Oc3ccnc4cnccc34)cc2)c(O)c1-c1ccc(F)cc1 [Compound 643, 5-(4-fluorophenyl)-4-hydroxy-6-methyl-N-[4-(1,7-naphthyridin-4-yloxy)phenyl]pyridine-3-carboxamide] |
| < 100 | Cc1nc(C)c(-c2ccc(F)cc2)c(O)c1C(=O)Nc1ccc(Oc2ccnc3cc(C(C)C)cnc23)cc1 [Compound 598, 5-(4-Fluorophenyl)-4-hydroxy-2,6-dimethyl-N-[4-[(7-propan-2-yl-1,5-naphthyridin-4-yl)oxy]phenyl]pyridine-3-carboxamide] |

More lines, now with the values behind:

| SMILES | IC50 [nM] |
| --- | --- |
| COc1nc2c(Oc3ccc(NC(=O)c4cn(C(C)C)cc(-c5ccc(F)cc5)c4=O)cc3F)ccnc2cc1Br [Compound 131, N-[4-[(7-Bromo-6-methoxy-1,5-naphthyridin-4-yl)oxy]-3-fluorophenyl]-5-(4-fluorophenyl)-4-oxo-1-propan-2-ylpyridine-3-carboxamide] | < 100 |
| CCn1cc(C(=O)Nc2ccc(Oc3ccnc4cc(OC)cnc34)cc2)c(=O)c(-c2ccc(F)cc2)c1C [Compound 163, 1-Ethyl-5-(4-fluorophenyl)-N-[4-[(7-methoxy-1,5-naphthyridin-4-yl)oxy]phenyl]-6-methyl-4-oxopyridine-3-carboxamide] | < 100 |
| COc1cnc2c(Oc3ccc(NC(=O)c4cn(C(C)(C)C)c(C)c(-c5ccc(F)cc5)c4=O)cc3F)ccnc2c1 [Compound 166, 1-tert-Butyl-N-[3-fluoro-4-[(7-methoxy-1,5-naphthyridin-4-yl)oxy]phenyl]-5-(4-fluorophenyl)-6-methyl-4-oxopyridine-3-carboxamide] | < 100 |
| COc1cnc2c(Oc3ccc(NC(=O)c4cn(C)c(C)c(-c5ccc(F)cc5)c4=O)cc3F)ccnc2c1 [Compound 156, N-[3-Fluoro-4-[(7-methoxy-1,5-naphthyridin-4-yl)oxy]phenyl]-5-(4-fluorophenyl)-1,6-dimethyl-4-oxopyridine-3-carboxamide] | < 100 |
| COc1cnc2c(Oc3ccc(NC(=O)c4cncc(-c5ccc(F)cc5)c4O)cc3F)ccnc2c1 [Compound 120, N-[3-Fluoro-4-[(7-methoxy-1,5-naphthyridin-4-yl)oxy]phenyl]-5-(4-fluorophenyl)-4-hydroxypyridine-3-carboxamide] | < 100 |
| COc1cc2nccc(Oc3ccc(NC(=O)c4c(C)nc(C)c(-c5ccc(F)cc5)c4O)cc3)c2nc1OC [Compound 173, N-[4-[(6,7-Dimethoxy-1,5-naphthyridin-4-yl)oxy]phenyl]-5-(4-fluorophenyl)-4-hydroxy-2,6-dimethylpyridine-3-carboxamide] | < 100 |
| COc1ccc2nccc(Oc3ccc(NC(=O)c4cnc(C)c(-c5ccc(F)cc5)c4O)cc3F)c2n1 [Compound 172, N-[3-Fluoro-4-[(6-methoxy-1,5-naphthyridin-4-yl)oxy]phenyl]-5-(4-fluorophenyl)-4-hydroxy-6-methylpyridine-3-carboxamide] | < 100 |
| COc1cnc2c(Oc3ccc(NC(=O)c4cnc(C)c(-c5ccc(F)cc5C)c4O)cc3F)ccnc2c1 [Compound 175, N-[3-Fluoro-4-[(7-methoxy-1,5-naphthyridin-4-yl)oxy]phenyl]-5-(4-fluoro-2-methylphenyl)-4-hydroxy-6-methylpyridine-3-carboxamide] | < 100 |
| COc1cc2nccc(Oc3ccc(NC(=O)c4cn(-c5cccnc5)cc(-c5ccc(F)cc5)c4=O)cc3F)c2nc1OC [Compound 125, N-[4-[(6,7-Dimethoxy-1,5-naphthyridin-4-yl)oxy]-3-fluorophenyl]-5-(4-fluorophenyl)-4-oxo-1-pyridin-3-ylpyridine-3-carboxamide] | < 100 |
| COc1cc2nccc(Oc3ccc(NC(=O)c4cn(OC)cc(-c5ccc(F)cc5)c4=O)cc3F)c2nc1OC [Compound 126, N-[4-[(6,7-Dimethoxy-1,5-naphthyridin-4-yl)oxy]-3-fluorophenyl]-5-(4-fluorophenyl)-1-methoxy-4-oxopyridine-3-carboxamide] | < 100 |
| COc1cc2nccc(Oc3ccc(NC(=O)c4cnc(C)c(-c5ccc(F)cc5C)c4O)cc3)c2nc1OC [Compound 174, N-[4-[(6,7-Dimethoxy-1,5-naphthyridin-4-yl)oxy]phenyl]-5-(4-fluoro-2-methylphenyl)-4-hydroxy-6-methylpyridine-3-carboxamide] | < 100 |
| COc1cc2nccc(Oc3ccc(NC(=O)c4cnc(N)n(-c5ccc(F)cc5)c4=O)cc3F)c2nc1OC [Compound 565, 2-Amino-N-[4-[(6,7-dimethoxy-1,5-naphthyridin-4-yl)oxy]-3-fluorophenyl]-1-(4-fluorophenyl)-6-oxopyrimidine-5-carboxamide] | < 100 |
| COc1cc2nccc(Oc3ccc(NC(=O)c4cn(CCN5CCOCC5)cc(-c5ccc(F)cc5)c4=O)cc3F)c2nc1OC [Compound 157, N-[4-[(6,7-Dimethoxy-1,5-naphthyridin-4-yl)oxy]-3-fluorophenyl]-5-(4-fluorophenyl)-1-(2-morpholin-4-ylethyl)-4-oxopyridine-3-carboxamide] | < 100 |
| COc1cc2nccc(Oc3ccc(NC(=O)c4cnc(C)c(-c5ccc(F)cc5)c4O)cc3)c2cc1OC [Compound 171, N-[4-(6,7-Dimethoxyquinolin-4-yl)oxyphenyl]-5-(4-fluorophenyl)-4-hydroxy-6-methylpyridine-3-carboxamide] | < 100 |
| CCn1cc(C(=O)Nc2ccc(Oc3ccnc4cc(OC)cnc34)cc2)c(=O)c(-c2ccc(F)cc2)c1 [Compound 169, 1-Ethyl-5-(4-fluorophenyl)-N-[4-[(7-methoxy-1,5-naphthyridin-4-yl)oxy]phenyl]-4-oxopyridine-3-carboxamide] | < 100 |
| COc1cc2nccc(Oc3ccc(NC(=O)c4cnc(C)c(-c5ccc(F)cc5)c4O)cc3F)c2nc1OC [Compound 28, N-[4-[(6,7-Dimethoxy-1,5-naphthyridin-4-yl)oxy]-3-fluorophenyl]-5-(4-fluorophenyl)-4-hydroxy-6-methylpyridine-3-carboxamide] | < 100 |
| COc1cc2nccc(Oc3ccc(NC(=O)c4cn(C(C)C)c(C)c(-c5ccc(F)cc5)c4=O)cc3F)c2nc1NS(C)(=O)=O [Compound 581, N-[3-Fluoro-4-[[6-(methanesulfonamido)-7-methoxy-1,5-naphthyridin-4-yl]oxy]phenyl]-5-(4-fluorophenyl)-6-methyl-4-oxo-1-propan-2-ylpyridine-3-carboxamide] | < 100 |
